Legend:
Src = Src (Homo sapiens, UniProt P12931); settings: cited from earlier work
[1] = tested on: CD11c+ CX3CR1hi myeloid cells and CD11c+ CX3CR1− DCs from the small intestine; test: Cytokine production by lamina propria gut myeloid cells; format: cell-based, mouse; settings: 0.3 μM, 30 min pre-treatment
Experimental: (§1) Bone marrow-derived DCs were differentiated from C57BL/6 bone marrow in the presence of GM-CSF-conditioned media. CD11c^+ CX3CR1^hi myeloid cells and CD11c^+ CX3CR1^− DCs were isolated from the small intestine lamina propria of Cx3cr1^eGFP/+ mice (12). Detection of cell-surface Thy1.1 expression on BMDCs from 10BiT reporter mice was conducted as described previously (24). Cell viability was estimated by change in total cellular ATP levels using CellTiterGlo assays (Promega). Preparation of recombinant SIK proteins and IC50 measurements were conducted as described previously (21). Total RNA was extracted using a NucleoSpin 96 RNA isolation kit (Macherey-Nagel) followed by cDNA synthesis and multiplex RT-PCR using a microfluidic dynamic array (Fluidigm). The concentrations of TNF-α, IL-6, IL-10, IL-12p40, IL-1β and RANTES in culture supernatants were detected using a FlexSet Cytometric bead array (BD Biosciences). Alternatively, IL-10 secretion was quantified using ELISA (BD Biosciences) or AlphaLISA (PerkinElmer) assays. NO production was estimated based on nitrate content in culture medium using the Greiss reagent.
After stimulation of cells with microbial ligands, the culture medium was removed, clarified by centrifugation for 10 min at 14,000×g, and the concentration of TNF-α, IL-6, IL-10, IL-12p40, IL-1β and RANTES were measured using FlexSet Cytokine Bead Array (BD Biosciences) according to the manufacturer's instructions. Where indicated, ELISAs were used to detect IL-10 and IL-12p70 (BD Biosciences) according to the manufacturer's instructions. NO production was estimated based on nitrate content in culture medium using the Greiss reagent as described previously (Miletic A V, et al. (2007) Vav proteins control MyD88-dependent oxidative burst. Blood 109(8):3360-3368).
CX3CR1GFP/+ mice were euthanized and intestines cut into 3-4 pieces before inversion onto polyethylene tubes (Becton Dickinson). Intestinal fragments were washed with calcium- and magnesium-free PBS (Lonza), and mucus was removed with 1 mM DTT. […]

SIK1 = biological target: T1, SIK1 (Homo sapiens, UniProt P57059); test: Protein kinase assay ([γ-32P] ATP, phosphocellulose paper) against SIK1; format: biochemical; settings: read-out: Enzyme Inhibition IC50 SIK1
T1 construct: made in house
T1 sequence (P57059 whole entry): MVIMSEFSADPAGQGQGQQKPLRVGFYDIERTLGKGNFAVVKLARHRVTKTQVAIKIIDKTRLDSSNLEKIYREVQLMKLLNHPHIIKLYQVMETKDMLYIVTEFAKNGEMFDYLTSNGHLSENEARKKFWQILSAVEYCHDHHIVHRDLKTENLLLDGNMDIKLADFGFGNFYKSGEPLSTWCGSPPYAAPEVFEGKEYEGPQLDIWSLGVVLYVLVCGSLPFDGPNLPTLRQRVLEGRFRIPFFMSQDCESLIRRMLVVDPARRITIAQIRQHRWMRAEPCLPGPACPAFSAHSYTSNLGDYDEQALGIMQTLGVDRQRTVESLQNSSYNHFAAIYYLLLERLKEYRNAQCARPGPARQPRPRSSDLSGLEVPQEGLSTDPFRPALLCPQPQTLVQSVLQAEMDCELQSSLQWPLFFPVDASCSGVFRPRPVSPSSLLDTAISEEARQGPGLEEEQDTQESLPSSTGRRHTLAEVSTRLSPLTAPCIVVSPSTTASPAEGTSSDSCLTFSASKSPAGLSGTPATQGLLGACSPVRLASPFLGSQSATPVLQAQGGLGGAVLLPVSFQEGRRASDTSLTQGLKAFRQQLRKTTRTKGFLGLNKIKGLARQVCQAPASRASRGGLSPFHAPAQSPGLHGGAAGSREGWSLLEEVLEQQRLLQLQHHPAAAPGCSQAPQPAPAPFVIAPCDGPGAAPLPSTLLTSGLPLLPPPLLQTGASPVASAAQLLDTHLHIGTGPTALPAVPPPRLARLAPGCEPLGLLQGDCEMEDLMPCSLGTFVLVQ
Experimental: as §1, with “Total RNA was extracted using a NucleoSpin 96 RNA isolation kit (Macherey-Nagel) followed by cDNA synthesis and multiplex RT-PCR using a microfluidic dynamic array (Fluidigm).” left out, “NO production was estimated based on nitrate content in culture medium using the Greiss reagent.” left out
In another set of experiments, the activities of the SIK inhibitors described herein against SIK were determined according to the methods reported in Hastie et al., Nature Protocols, 2006, 1, 968-971. […]
The specific activity of the [γ-^32P] […] To measure the concentration of ATP, a sample of such a stock solution was diluted to 20 μM, and the absorbance of the diluted sample was measured at 259 nm. The absorbance of a 20-μM stock solution of ATP at 259 nm was about 0.31. […] ATP to produce a radioactivity of 1×10^5 to 1×10^6 c.p.m. per nmol. […]

Src, sequence (P12931 whole entry, species assumed): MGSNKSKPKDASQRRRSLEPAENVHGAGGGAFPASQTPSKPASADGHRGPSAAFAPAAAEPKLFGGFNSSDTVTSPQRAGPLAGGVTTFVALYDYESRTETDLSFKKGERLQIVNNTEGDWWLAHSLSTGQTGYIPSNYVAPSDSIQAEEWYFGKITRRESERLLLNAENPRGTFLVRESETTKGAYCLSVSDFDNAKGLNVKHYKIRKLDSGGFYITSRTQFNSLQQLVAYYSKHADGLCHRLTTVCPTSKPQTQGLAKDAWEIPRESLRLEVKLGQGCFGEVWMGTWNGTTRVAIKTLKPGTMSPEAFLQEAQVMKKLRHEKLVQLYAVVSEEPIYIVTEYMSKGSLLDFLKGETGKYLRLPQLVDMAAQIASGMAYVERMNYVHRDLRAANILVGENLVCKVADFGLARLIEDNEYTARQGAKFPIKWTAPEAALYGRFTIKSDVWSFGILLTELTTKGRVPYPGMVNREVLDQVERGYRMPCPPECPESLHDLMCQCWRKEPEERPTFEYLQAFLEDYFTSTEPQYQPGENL

IC50 (SIK1) | SMILES | Src activity remaining (Src) | IL-10 production by CD11c+ CX3CR1hi cells ([1]; LPS or zymosan 18 hr) | secretion of TNF-α by gut myeloid cell subsets ([1]; both subsets) | production of IL-6 or RANTES by gut myeloid cell subsets ([1]; either subset)
– | COc1ccc(N(C(=O)Nc2c(C)cccc2C)c2cc(Nc3ccc(N4CCN(C)CC4)cc3)ncn2)c(OC)c1 [HG-9-91-01] | less than 4% | enhanced IL-10 production | reduced secretion of TNF-α | not affected
36.2 nM | CCN1CCN(c2ccc(Nc3cc(-n4ccnc4Nc4c(C)cccc4C)ncn3)cc2)CC1 [II-1, 6-(2-((2,6-dimethylphenyl)amino)-1H-imidazol-1-yl)-N-(4-(4-ethylpiperazin-1-yl)phenyl)pyrimidin-4-amine] | – | – | – | –

Reference: patent US10265321B2, “Uses of salt-inducible kinase (SIK) inhibitors” (Dana-Farber Cancer Institute, Inc., priority 2014, dated 2019)
